According to PubChem BioAssay (NCI):
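Following 48 hours of exposure in 96-well plates, responses at five concentrations were used to interpolate endpoints linearly. GI50 marks 50% less growth. TGI marks complete inhibition of growth.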

Key:
Experiment in all cases: DTP human tumour cell line panel, 48 h
[1] = tested on: 786-0 renal
[2] = tested on: A498 renal
[3] = tested on: A549 NSCLC
[4] = tested on: ACHN renal
[5] = tested on: BT-549 breast
[6] = tested on: CAKI-1 renal
[7] = tested on: CCRF-CEM leukemia
[8] = tested on: COLO 205 colon
[9] = tested on: DU-145 prostate
[10] = tested on: EKVX NSCLC
[11] = tested on: HCC-2998 colon
[12] = tested on: HCT-116 colon
[13] = tested on: HCT-15 colon
[14] = tested on: HL-60(TB) leukemia
[15] = tested on: HOP-62 NSCLC
[16] = tested on: HOP-92 NSCLC
[17] = tested on: HS 578T breast
[18] = tested on: HT29 colon
[19] = tested on: IGROV1 ovarian
[20] = tested on: K-562 leukemia
[21] = tested on: KM12 colon
[22] = tested on: LOX IMVI melanoma
[23] = tested on: M14 melanoma
[24] = tested on: MALME-3M melanoma
[25] = tested on: MCF7 breast
[26] = tested on: MDA-MB-231 breast
[27] = tested on: MDA-MB-435
[28] = tested on: MDA-MB-468 breast
[29] = tested on: MOLT-4 leukemia
[30] = tested on: NCI-H226 lung
[31] = tested on: NCI-H23 lung
[32] = tested on: NCI-H460 lung
[33] = tested on: NCI-H522 lung
[34] = tested on: NCI/ADR-RES ovarian
[35] = tested on: OVCAR-3 ovarian
[36] = tested on: OVCAR-4 ovarian
[37] = tested on: OVCAR-5 ovarian
[38] = tested on: OVCAR-8 ovarian
[39] = tested on: PC-3 prostate
[40] = tested on: RPMI-8226 leukemia
[41] = tested on: RXF 393 renal
[42] = tested on: SF-268 CNS
[43] = tested on: SF-295 CNS
[44] = tested on: SF-539 CNS
[45] = tested on: SK-MEL-2 melanoma
[46] = tested on: SK-MEL-28 melanoma
[47] = tested on: SK-MEL-5 melanoma
[48] = tested on: SK-OV-3 ovarian
[49] = tested on: SN12C renal
[50] = tested on: SNB-19 CNS
[51] = tested on: SNB-75 CNS
[52] = tested on: SR leukemia
[53] = tested on: SW-620 colon
[54] = tested on: T-47D breast
[55] = tested on: TK-10 renal
[56] = tested on: U251 CNS
[57] = tested on: UACC-257 melanoma
[58] = tested on: UACC-62 melanoma
[59] = tested on: UO-31 renal

With `CCN1CCN(c2ccc(NC(=O)Nc3ccc(-c4cc(C(=O)NC)c5ncccc5n4)cc3)cc2C(F)(F)F)CC1` the GI50 [1] was 295 nM, the TGI [1] was 583 nM and the GI50 [2] was 2740 nM. It also gave a TGI [2] of 5310 nM, a GI50 [3] of 466 nM and a TGI [3] of 1300 nM. For the same molecule, the GI50 [4] was 2390 nM, the TGI [4] was 4730 nM and the GI50 [5] was 2780 nM. The TGI [5] was 5670 nM, the GI50 [6] was 3010 nM and the TGI [6] was 5600 nM. For the same molecule, the GI50 [7] was 461 nM, the TGI [7] was 1270 nM and the GI50 [8] was 4150 nM. For the same molecule, the TGI [8] was 14200 nM, the GI50 [9] was 2230 nM and the TGI [9] was 4900 nM. The GI50 [10] was 2940 nM, the TGI [10] was 5630 nM and the GI50 [11] was 2830 nM. It also gave a TGI [11] of 5310 nM, a GI50 [12] of 1120 nM and a TGI [12] of 4830 nM. The GI50 [13] was 333 nM, the TGI [13] was 697 nM and the GI50 [14] was 3420 nM. The TGI [14] was greater than 18000 nM, the GI50 [15] was 2790 nM and the TGI [15] was 5410 nM. It also gave a GI50 [16] of 2450 nM, a TGI [16] of 5670 nM and a GI50 [17] of 2390 nM. The TGI [17] was 6880 nM, the GI50 [18] was 525 nM and the TGI [18] was 2110 nM. It also gave a GI50 [19] of 3010 nM, a TGI [19] of 5610 nM and a GI50 [20] of 657 nM. It also gave a TGI [20] greater than 18000 nM, a GI50 [21] of 3250 nM and a TGI [21] of 6650 nM. The GI50 [22] was 674 nM, the TGI [22] was 2660 nM and the GI50 [23] was 400 nM. It also gave a TGI [23] of 1050 nM, a GI50 [24] of 286 nM and a TGI [24] of 532 nM. For the same molecule, the GI50 [25] was 293 nM, the TGI [25] was 608 nM and the GI50 [26] was 2780 nM. The TGI [26] was 5250 nM, the GI50 [27] was 269 nM and the TGI [27] was 564 nM. For the same molecule, the GI50 [28] was 2480 nM, the TGI [28] was 5030 nM and the GI50 [29] was 689 nM. The TGI [29] was greater than 18000 nM, the GI50 [30] was 2700 nM and the TGI [30] was 6360 nM. It also gave a GI50 [31] of 2680 nM, a TGI [31] of 5680 nM and a GI50 [32] of 664 nM. For the same molecule, the TGI [32] was 2920 nM, the GI50 [33] was 3230 nM and the TGI [33] was 6400 nM. For the same molecule, the GI50 [34] was 1780 nM, the TGI [34] was 8090 nM and the GI50 [35] was 2550 nM. For the same molecule, the TGI [35] was 5060 nM, the GI50 [36] was 2630 nM and the TGI [36] was 5640 nM. The GI50 [37] was 2820 nM, the TGI [37] was 5230 nM and the GI50 [38] was 3850 nM. The TGI [38] was 10500 nM, the GI50 [39] was 2880 nM and the TGI [39] was 6030 nM. For the same molecule, the GI50 [40] was 3050 nM, the TGI [40] was greater than 18000 nM and the GI50 [41] was 494 nM. The TGI [41] was 1660 nM, the GI50 [42] was 3090 nM and the TGI [42] was 7000 nM. The GI50 [43] was 2050 nM, the TGI [43] was 4470 nM and the GI50 [44] was 2300 nM. It also gave a TGI [44] of 4570 nM, a GI50 [45] of 9870 nM and a TGI [45] greater than 18000 nM. The GI50 [46] was 322 nM, the TGI [46] was 582 nM and the GI50 [47] was 2050 nM. The TGI [47] was 4260 nM, the GI50 [48] was 3480 nM and the TGI [48] was 7500 nM. The GI50 [49] was 2770 nM, the TGI [49] was 5300 nM and the GI50 [50] was 2970 nM. It also gave a TGI [50] of 5480 nM, a GI50 [51] of 842 nM and a TGI [51] of 3820 nM. It also gave a GI50 [52] of 670 nM, a TGI [52] greater than 18000 nM and a GI50 [53] of 314 nM. For the same molecule, the TGI [53] was 621 nM, the GI50 [54] was 3720 nM and the TGI [54] was greater than 18000 nM. It also gave a GI50 [55] of 3860 nM, a TGI [55] of 6630 nM and a GI50 [56] of 2700 nM. The TGI [56] was 5530 nM, the GI50 [57] was 3050 nM and the TGI [57] was 6000 nM. It also gave a GI50 [58] of 3060 nM, a TGI [58] of 5660 nM and a GI50 [59] of 2710 nM. It also gave a TGI [59] of 5140 nM.
